Measurements: ChEMBL document CHEMBL3507680, “University of Dundee, Gates Library screen for HepG2 cell viability”

Test: Human HepG2 cell viability assay in 384 well format
Assay type: toxicity, cell-based
Design: dose 125 nL, time 70.5 hour; concentration not given beside the values
Conditions: HepG2 cells, read-out: Inhibition

Row | SMILES | cytotoxicity at 70.5 h [%]
1 | O=C(O)c1csc(S(=O)(=O)N2CCN(Cc3c(F)cccc3Cl)CC2)c1 | -31.1
2 | Cc1nc(C)n(CC2CCCN(c3ccc(C#N)cn3)C2)n1 (centres undefined) | -3.58
3 | CCc1nc(CN(C)C(=O)C2CCC(=O)N(CC3CCCCC3)C2)no1 (centres undefined) | -4.07
4 | COc1ncc(C2(O)CCN(Cc3cccs3)CC2)c(OC)n1 | -8.54
5 | CN(C)c1ncccc1CNCc1cccc(O)c1 | -12.2
6 | CNc1cc(N2CCCC2CNCc2ccc(Cl)o2)ncn1 (centres undefined) | 8.16
7 | Cc1cc(N(C)C)nc(C2CCCNC2)n1 (centres undefined) | -1.07
8 | O=C(c1cc(C2CCCCC2)no1)N1C[C@H]2C[C@H](O)C[C@H]2C1 | -4.06
9 | O=C(NCCCO)Nc1ccccc1 | 3.04
10 | CN(Cc1noc2c1CCCC2)C(=O)Nc1cccc(S(N)(=O)=O)c1 | 17.1
11 | O=C(C[C@@H]1COC[C@H]2CN(Cc3cccnc3)C[C@@H]12)N1CCCC1 | -4.76
12 | O=C(NCC1CC1)[C@@H]1CCO[C@@H]2CCN(Cc3ccsc3)C[C@H]21 | -10.2
13 | CN1CCN(C2CCN(Cc3nnc(C(C)(C)C)o3)CC2)C1=O | -1.9
14 | Cc1nccc(C(=O)NC(COCC(C)C)c2ccco2)n1 (centres undefined) | 19.4
15 | Cc1cnc(N2CCC3(CC2)C(c2ccccc2)CC(=O)N3C)nc1 (centres undefined) | -10.2
16 | COCC(O)CNC(=O)c1cc(COc2ccc3c(c2)CCCC3)on1 (centres undefined) | -4.42
17 | Cc1ccsc1-c1nccn1C1CC(=O)N(C(C)C)C1 (centres undefined) | -5.72
18 | CCc1cc(NCCCC2CCOC2)n2nccc2n1 (centres undefined) | -1.93
19 | CCOc1ccc(C#N)cc1NCC(=O)Nc1cc(C)no1 | -14.1
20 | CCc1cc(C(=O)N[C@@H]2CC[C@@H](N3CCOCC3)[C@@H]2O)no1 | -4.39
21 | COc1cccc(CNCc2cccnc2-n2cccn2)c1OC | 19.6
22 | O=C(NCc1cnc2n1CCN(Cc1ccoc1)C2)c1ccno1 | -0.405
23 | COCCNc1ncc(-c2cccc(F)c2)c(-c2nccn2C)n1 | 11

Row | SMILES | cytotoxicity at 70.5 h [%]
24 | Cc1cc(NC(=O)CNC2CCc3ncnn3C2)no1 (centres undefined) | -18.6
25 | O=S1(=O)C[C@@H]2[C@H](C1)N(Cc1nc3ccccc3[nH]1)CCN2CC1CC1 | -5.06
26 | O=C(O)CCc1cn(C2CCN(c3ncccc3Cl)CC2)nn1 | 7.14
27 | CNC(=O)c1ccc(=O)n(Cc2csc(C(C)(C)C)n2)c1 | -18.4
28 | Cc1oncc1C(=O)N1CC[C@@H]2[C@@H]1CC(=O)N2Cc1cccnc1 | -5.14
29 | O=S(=O)(c1ccc(F)cc1)N1CCCC(c2nccs2)C1 (centres undefined) | -2.41
30 | Cc1ccccc1-c1noc(CN2CCC(c3ccn[nH]3)CC2)n1 | 30.9
31 | c1cnn(CCNCc2cnc(N3CCCC3)nc2)c1 | -9.32
32 | CCCn1cc(S(=O)(=O)N(C)Cc2nonc2C)c(C)n1 | -3.71
33 | CCOCC1CC2(CCN(C(=O)c3ccccc3F)CC2)CO1 (centres undefined) | 0.964
34 | CC(C)(C)c1cnc(CN2CCC(NC(=O)C3CCOCC3)CC2)o1 | -5
35 | Cc1ccc(C(C)NCCc2nccn2Cc2ccccc2)o1 (centres undefined) | -10.1
36 | COc1cccc(-n2cc(CN(C)C(=O)c3cnc(O)cn3)cn2)c1 | -9
37 | Cc1nc(N2CCCC2)nc2c1CCN(C(=O)NC(C)C)CC2 | 30.9
38 | Cc1ccc(S(=O)(=O)NC2=NCN(CCc3cccs3)CN2)cc1 | -14.3
39 | NC(=O)Cn1ccc(NC(=O)C2(c3cccc(F)c3)CCC2)n1 | 19.5
40 | CC(=O)N1CCC2(C1)CN(C(=O)C1CCOC1)C2 (centres undefined) | -11.2
41 | CC(C)C(C(=O)N1CCCN(Cc2cscn2)CC1)n1cncn1 (centres undefined) | -4.6
42 | O=C(NCc1ccccn1)[C@]12COC[C@H]1CN(Cc1ccccc1F)C2 | -7.42
43 | CN1CCC(c2cccc(NCc3nccn3C)n2)CC1 | 22.4
44 | Cc1cc(NC(=O)N(C)C2CCCN(c3ccccc3)C2=O)n(C)n1 (centres undefined) | -2.17
45 | CC(C)c1noc(CN2CCN(CCO)CC2)n1 | 2.45
46 | CC(C)c1cc(C(=O)NCCN2CCOCC2)nc(N2CCCC2)n1 | -3.85

Row | SMILES | cytotoxicity at 70.5 h [%]
47 | COc1ccccc1[C@@H]1CN(Cc2ccncc2)C[C@H]1C(=O)O | 9.71
48 | COCC(=O)N1C[C@@H](c2cccc(F)c2)[C@H]2[C@H]1CCCCCN2C(C)=O | 7.2
49 | O=C(NC1CC(=O)N(C2CC2)C1)c1cccs1 (centres undefined) | 11.1
50 | CC(C)C(=O)NC1COC2(CCN(Cc3cccnc3)CC2)C1 (centres undefined) | -10.3
51 | CCc1csc(C2CCCN(C(=O)c3cc(C4CC4)[nH]n3)C2)n1 (centres undefined) | -7.48
52 | CC(C)COCc1cncc2c1CCN(Cc1cnn(C)c1)C2 | -13.8
53 | Cc1nc(N(Cc2ccncc2)CC2CCCO2)c2ccsc2n1 (centres undefined) | -5.47
54 | CN(CCc1ccccc1)Cc1c(C2CCNCC2)[nH]c2ncccc12 | -6.11
55 | Cc1ncccc1C(=O)Nc1cccc(Cn2ccccc2=O)c1 | -7.74
56 | O=C1N(Cc2ccc(F)c(F)c2)CCCC12CCN(C1CCCC1)C2 (centres undefined) | -2.62
57 | O=C(c1cc(C2CC2)nc2onc(-c3ccccc3)c12)N1CCOCC1 | 18.5
58 | CCn1cnnc1C1CCN(C(=O)c2ccc3cc[nH]c3c2)CC1 | 5.48
59 | O=C(CCC1CCCN(S(=O)(=O)C2CC2)C1)Nc1ccc(Cl)cc1 (centres undefined) | 34.5
60 | COc1ccc(CNC(C)c2cn[nH]c2C)cc1 (centres undefined) | 14.1
61 | CC(C)CN1CCN(C(=O)c2ccncc2F)Cc2cccnc21 | -9.62
62 | COCCCN1C(=O)CC(N2CCN(c3ccc(F)cc3)CC2)C1=O (centres undefined) | -1.4
63 | CC(C)c1ccc(NC(=O)Cn2cc(I)cn2)cc1 | -24.1
64 | CN(Cc1ccco1)C1CCC12CCN(C(=O)C1CCOCC1)CC2 (centres undefined) | -3.65
65 | COCc1nn(CC2CC2)c2c1CN(Cc1ccco1)CC2 | -8.39
66 | O=C1[C@H]2CN(CC3CCOCC3)C[C@H]2CN1Cc1cccc(F)c1 | 4.65
67 | O=C(COc1ccc2c(c1)CCC2)N1CCOCC1c1ncon1 (centres undefined) | -10.4
68 | CN1CC[C@]2(CN(CC3CC3)C[C@H]2c2ccccc2)C1=O | 23.4
69 | CC(C)NC(=O)CN1CCCNCC1 | -0.253

Row | SMILES | cytotoxicity at 70.5 h [%]
70 | CCc1nc(NS(=O)(=O)c2cc(C)ccc2Br)no1 | 1.48
71 | Cc1cccc(NC(=O)N2CC(C(=O)NC(C)C)C3(CCOCC3)C2)c1 (centres undefined) | 9.15
72 | O=C(Cc1ccccn1)N1CCC2(CCCN(CC3CCOCC3)C2)C1 (centres undefined) | -0.432
73 | Cc1cc(CN2CCN(C(c3ccccc3)c3ccccc3)CC2)no1 | 1.19
74 | c1cncc(OCc2nnn3c2CN(Cc2ccsc2)CCC3)c1 | -11.8
75 | CNC(=O)c1cn[nH]c1C1CCN(Cc2sccc2C)C1 (centres undefined) | -5.33
76 | CC(C)c1nc2c(n1C)CCN(CCCOc1ccc(C#N)cc1)C2 | 2.99
77 | c1ccc2oc(N3CCCC3Cn3cncn3)nc2c1 (centres undefined) | -3.56
78 | CC1(C)OC(=O)N(CC(=O)N2CCC(c3ccccc3Cl)C2)C1=O (centres undefined) | -6.23
79 | c1ccc(Cn2cccn2)c(CNCc2cnc(N3CCCC3)nc2)c1 | -13.6
80 | CC(C)(C)n1ncc2c(=O)[nH]c(N3CC(O)C3)nc21 | 0.684
81 | Oc1cc(-c2cccs2)nc(C2CCCN(CC3=CCCOC3)C2)n1 (centres undefined) | -9.88
82 | N#Cc1cnc2ccccc2c1N1CCN(C(=O)C2CCC2)CC1 | -1.5
83 | Cc1cccc(C(C)CNC(=O)N2CCC3(C2)OCCO3)c1 (centres undefined) | 12.8
84 | O=C(NC1CCN(c2cccc(C(F)(F)F)n2)CC1)C1CC1 | 23.1
85 | Cc1ccc2c(c1)OC(C)(C)CC2NC(=O)C1CCN(S(C)(=O)=O)CC1 (centres undefined) | -5.08
86 | Cc1cc(C[S+]([O-])CC(=O)NCc2cccs2)no1 (centres undefined) | -4.91
87 | O=C(N1CCc2ccccc2CC1)C1(O)Cc2ccccc2C1 | -2.64
88 | CCCN1CCC(NC(=O)c2csc(C)c2-c2ccccc2)CC1 | -9.07
89 | Cc1ncsc1C(=O)N1CCc2nnc(C3CCCCN3C)n2CC1 (centres undefined) | -2.05
90 | Fc1ccc(-c2nc(CN3CCOC(Cn4cccn4)C3)co2)cc1 (centres undefined) | -5.89
91 | COCCN(Cc1ccoc1)C(=O)c1ccccn1 | -3.55
92 | CCC1CCCCN1C(=O)c1ccc2[nH]nnc2c1 (centres undefined) | -2.33

Row | SMILES | cytotoxicity at 70.5 h [%]
93 | COc1ccccc1N1CCC(NCc2c(C)noc2C)C1 (centres undefined) | 30
94 | CN(CC(=O)N1CCCC1c1noc(C2CC2)n1)Cc1ccccc1 (centres undefined) | -7.61
95 | CCCn1ncc(-c2ccnc(NC3CCSC3)n2)c1C (centres undefined) | -12.7
96 | Cc1nn(C)c2nc3c(c(C(=O)/N=c4\[nH]nc(C(C)C)s4)c12)CCC3 | -18.8
97 | Cc1ncncc1C(=O)N1CCOC(C(=O)NC2CCCC2)C1 (centres undefined) | -1.76
98 | Cc1c(C2CCCN(C(=O)c3ccn(C)n3)C2)n2c(nc1=O)CCC2 (centres undefined) | -7.35
99 | CC(C)c1nc(CN2CCN(C(=O)CC3CCCCC3)CC2)no1 | 7.95
100 | O=C(c1cscn1)N1CC[C@@H]2[C@@H]1CCN2c1ccccn1 | -2.32
101 | Cc1nc(O)ccc1C(=O)NCc1ncccc1F | -2.33
102 | Cc1cccc(C(C(=O)N2CC(c3ccccn3)C2)N(C)C)c1 (centres undefined) | -3.41
103 | Cn1ccc(CNC(=O)N2CCCC3(C2)OCCO3)c1 | 0.239
104 | CCN(CC)C(=O)COc1nc(C(C)C)no1 | 18.3
105 | CCn1cc(CN2CCCN(C(=O)c3cccn3C)CC2)cn1 | -7.92
106 | O=C(NCCNc1ncccn1)NCc1cccc(OC(F)F)c1 | 18.9
107 | Cc1nc(NCc2cccnc2)cc(C2COCCN2)n1 (centres undefined) | -5.63
108 | CN1C(=O)C2(CCN(Cc3nccn3C)CC2)c2ccccc21 | -4.36
109 | O=S1(=O)NCC2(CCCN(Cc3ccccn3)C2)Oc2ncccc21 (centres undefined) | 30.8
110 | Cc1ccc(CNC2(Cc3cc(C(C)(C)O)on3)COC2)o1 | -5.2
111 | Cc1cccc(CC(=O)NCCCOC(C)C)c1 | -10.5
112 | Cc1nnnn1CCC(=O)N1CCC2(CCC(=O)N(CC3CC3)C2)CC1 | -8.64
113 | CN(Cc1nnc(C2CC2)n1C)S(=O)(=O)c1ccccc1F | 4.23
114 | O=C(NCCNc1ccc(C(F)(F)F)cn1)c1cncc(Br)c1 | -12.5
